Laboratory results taken from ChEMBL document CHEMBL1795220, “Antifungal quinazolinones from marine-derived Bacillus cereus and their preparation” (2011).
Values after ≈ are worked out from the molar mass of the structure shown.

Tested on: Candida albicans
Experiment: Antifungal activity against Candida albicans after 12 hrs by agar dilution method
Type: functional

Structure (SMILES) | MIC
Oc1nc(Cc2ccccc2)nc2ccccc12 | 10.6 µM (≈ 2.5 µg/mL)
CCCC[C@@H](CC)c1nc2ccccc2c(=O)[nH]1 | 2.5 µM (≈ 0.611 µg/mL)
CCCC[C@H](CC)c1nc2ccccc2c(=O)[nH]1 | 1.3 µM (≈ 0.318 µg/mL)
Cc1nc2ccccc2c(=O)[nH]1 | 15.6 µM (≈ 2.5 µg/mL)
CCCC[C@@H](CC)C1NC(=O)c2ccccc2N1 (mixture of isomers) | 2.5 µM
CCCC[C@H](CC)C1NC(=O)c2ccccc2N1 (mixture of isomers) | 5 µM
CCCCC(CC)c1nc2ccccc2c(=O)[nH]1 (racemic) | 10.2 µM (≈ 2.49 µg/mL)
CCCCC(CC)C1NC(=O)c2ccccc2N1 (racemic) | 10.1 µM (≈ 2.49 µg/mL)
CC(=O)N1CCN(c2ccc(OCC3COC(Cn4ccnc4)(c4ccc(Cl)cc4Cl)O3)cc2)CC1 (centres undefined) [KETOCONAZOLE] | 0.2 µM (≈ 0.106 µg/mL)
